For 18 compounds, IC50 results are on record in patent US11976083B2, “Inhibitors of peptidylarginine deiminases” (Gilead Sciences, Inc., priority 2020, dated 2024).

SMILES strings stand for the structures.

In the assay the target is T1, human PAD4 (Homo sapiens, UniProt Q9UM07).
T1 construct: human PAD4 (NM_012387), A2-P663, was PCR amplified; His-SUMO (N, cleaved yes); made in house; host or cells: E. coli BL21(DE3)
The experiment in a line: In vitro PAD4 BAEE biochemical assay. To be noted: BAEE substrate 3 mM, 5 nM PAD4, 2 mM calcium chloride; geometric mean of multiple experiments. Summed up: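 Ammonia produced by BAEE deimination (3 mM substrate, 2 h, 25 °C) was read as fluorescent isoindole after o-phthalaldehyde/DTT derivatization, ex 405 nm/em 535 nm. Human PAD4 at 5 nM final, 2 mM calcium, pH 7.6 MOPS; compound preincubated 30 min. IC50s, normalized to BB-Cl-Amidine and DMSO controls, were geometric-mean averaged.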

T1 sequence (Q9UM07 2-663): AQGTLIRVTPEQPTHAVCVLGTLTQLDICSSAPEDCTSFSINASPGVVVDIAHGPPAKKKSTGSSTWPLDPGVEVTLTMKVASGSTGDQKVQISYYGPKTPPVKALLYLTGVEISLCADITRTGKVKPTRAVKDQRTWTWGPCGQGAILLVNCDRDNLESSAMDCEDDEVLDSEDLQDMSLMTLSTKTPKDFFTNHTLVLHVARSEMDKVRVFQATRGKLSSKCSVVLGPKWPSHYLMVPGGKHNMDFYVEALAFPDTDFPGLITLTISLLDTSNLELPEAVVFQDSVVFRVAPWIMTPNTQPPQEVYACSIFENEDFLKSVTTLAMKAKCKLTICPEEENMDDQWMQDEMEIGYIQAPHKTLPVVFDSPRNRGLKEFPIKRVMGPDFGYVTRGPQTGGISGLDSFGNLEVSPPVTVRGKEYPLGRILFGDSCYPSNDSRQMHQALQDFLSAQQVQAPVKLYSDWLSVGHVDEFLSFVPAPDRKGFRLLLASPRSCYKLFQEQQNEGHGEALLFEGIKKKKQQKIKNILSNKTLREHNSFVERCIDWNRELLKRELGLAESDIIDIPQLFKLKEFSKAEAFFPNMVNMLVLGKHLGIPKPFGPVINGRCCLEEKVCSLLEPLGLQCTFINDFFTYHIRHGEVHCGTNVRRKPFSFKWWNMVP

As to `COc1cc(C(=O)N2CCC[C@@H](N)C2)cc2nc(-c3cc4ccc5nc4n3CCCCCCCCC(=O)N3CCC[C@H]53)n(C)c12` [Example 107, (2~{R})-17-[5-[(3~{R})-3-aminopiperidine-1-carbonyl]-7-methoxy-1-methyl-benzimidazol-2-yl]-6,16,22-triazatetracyclo[14.5.2.0^{2,6}.0^{19,23}] tricosa-1(22),17,19(23),20-tetraen-7-one], the half-maximal inhibitory concentration (IC50) (in general, the concentration that inhibits the measured activity by half) was found to be 24 nM.
Take `COc1cc(C(=O)N2CCC[C@@H](N)C2)cc2nc(-c3cc4ccc5nc4n3CCCCC[C@H]3C[C@@H]3C(=O)N[C@@H]5C)n(C)c12` [Example 158, (2~{R},5~{S},7~{S})-14-[5-[(3~{R})-3-aminopiperidine-1-carbonyl]-7-methoxy-1-methyl-benzimidazol-2-yl]-2-methyl-3,13,19-triazatetracyclo[11.5.2.0^{5,7}.0^{16,20}] icosa-1(19),14,16(20),17-tetraen-4-one]: the IC50 is 241 nM.
The same measure for `COc1cc(C(=O)N2[C@H]3CC[C@@H]2[C@H](N)C3)cc2nc(-c3cc4ccc5cc4n3CCCCCCC(=O)Nc3ncccc3-5)n(C)c12` [Example 88, 17-[5-[(1˜{R},2˜{R},4˜{S})-2-amino-7-azabicyclo[2.2.1]heptane-7-carbonyl]-7-methoxy-1-methyl-benzimidazol-2-yl]-6,8,16-triazatetracyclo[14.5.2.0^{2,7}.0^{19,23}]tricosa-1(22),2,4,6,17,19(23),20-heptaen-9-one]: 97 nM; for `C[C@H]1NC(=O)[C@@H]2C[C@@]2(F)CCCCCn2c(-c3nc4cc(C(=O)N5C[C@H](N)[C@@H]6CC[C@H]5C6)ccc4n3C3CC3)cc3ccc1nc32` [Example 923, (2~{R},5~{S},7~{S})-14-[5-[(1~{S},4~{R},5~{R})-4-amino-2-azabicyclo[3.2.1]octane-2-carbonyl]-1-cyclopropyl-benzimidazol-2-yl]-7-fluoro-2-methyl-3,13,19-triazatetracyclo [11.5.2.0^{5,7}.0^{16,20}] icosa-1(19),14,16(20), 17-tetraen-4-one]: 24 nM; for `C[C@H]1NC(=O)c2ccncc2CCCCCn2c(-c3nc4cc(C(=O)N[C@H]5CNCC[C@@H]5F)c(F)cc4n3C)cc3ccc1nc32` [Example 350, 6-fluoro-~{N}-[(3~{S},4~{S})-4-fluoro-3-piperidyl]-1-methyl-2-[(2~{R})-2-methyl-4-oxo-3,8,16,22-tetrazatetracyclo[14.5.2.0^{5,10}.0^{19,23}]tricosa-1(22),5,7,9,17,19(23),20-heptaen-17-yl]benzimidazole-5-carboxamide]: 38 nM.
`COc1cc(C(=O)N2[C@H]3CC[C@@H]2[C@H](N)C3)cc2nc(-c3cc4ccc5nc4n3CCCC[C@H]3C[C@@H]3C(=O)N[C@@H]5C)n(C)c12` [Example 152, (2~{R},5~{S},7~{S})-13-[5-[(1~{R},2~{R},4~{S})-2-amino-7-azabicyclo[2.2.1]heptane-7-carbonyl]-7-methoxy-1-methyl-benzimidazol-2-yl]-2-methyl-3,12,18-triazatetracyclo[10.5.2.0^{5,7}.0^{15,19}] nonadeca-1(18),13,15(19),16-tetraen-4-one]: the half-inhibitory concentration (IC50) turned out to be 43 nM.
To `COc1cc(C(=O)N2C[C@H](N)[C@@H]3CC[C@H]2C3)cc2nc(-c3cc4ccc5nc4n3CC(F)(F)CCCOC3(CC3)C(=O)N[C@@H]5C)n(C3CC3)c12` [Example 931, (11~{R})-17-[5-[(1~{S},4~{R}, 5~{R})-4-amino-2-azabicyclo [3.2.1]octane-2-carbonyl]-1-cyclopropyl-7-methoxy-benzimidazol-2-yl]-3,3-difluoro-11-methyl-spiro[7-oxa-1,10,19-triazatricyclo[10.5.2.0^ {15,18}]nonadeca-12(19), 13,15(18),16-tetraene-8,1′-cyclopropane]-9-one] belongs 64 nM; to `C[C@H]1NC(=O)c2ccc(Cl)nc2CCCCCn2c(-c3nc4cc(C(=O)N5C[C@H](N)[C@@H]6CC[C@H]5C6)cc(F)c4n3C3CC3)cc3ccc1nc32` [Example 472, (2˜{R})-17-[5-[(1˜{S},4˜{R},5˜{R})-4-amino-2-azabicyclo[3.2.1]octane-2-carbonyl]-1-cyclopropyl-7-fluoro-benzimidazol-2-yl]-8-chloro-2-methyl-3,9,16,22-tetrazatetracyclo[14.5.2.0^{5,10}.0^{19,23}]tricosa-1(21),5(10),6,8,17,19,22-heptaen-4-one], 42 nM; to `C[C@H]1NC(=O)[C@H]2[C@@H](CCCCCn3c(-c4nc5cc(C(=O)N[C@H]6CNCC[C@@H]6F)c(F)cc5n4C)cc4ccc1nc43)C2(F)F` (single isomer, unassigned) [Example 381, 2-[(2˜{R},5˜{R},7˜{R})-6,6-difluoro-2-methyl-4-oxo-3,13,19-triazatetracyclo[11.5.2.0^{5,7}.0^{16,20}]icosa-1(19),14,16(20),17-tetraen-14-yl]-6-fluoro-˜{N}-[(3˜{S},4˜{S})-4-fluoro-3-piperidyl]-1-methyl-benzimidazole-5-carboxamide], 29 nM.
The same measure for `COc1cc(C(=O)N2CCC[C@@H](N)C2)cc2nc(-c3cc4ccc5nc4n3CCCCCOCC(C)(C)C(=O)N[C@@H]5C)n(C)c12` [Example 17, (12~{R})-18-[5-[(3~{R})-3-aminopiperidine-1-carbonyl]-7-methoxy-1-methyl-benzimidazol-2-yl]-9,9,12-trimethyl-7-oxa-1,11,20-triazatricyclo[11.5.2.0^{16,19}]icosa-13(20),14,16(19),17-tetraen-10-one]: 74 nM; for `COc1cc(C(=O)N2CC[C@@H](OC)[C@@H](N)C2)cc2nc(-c3cc4ccc5nc4n3CCCCCc3ccnc(C4CC4)c3C(=O)N[C@@H]5C)n(C)c12` [Example 663, (2~{R})-17-[5-[(3~{S),4~ {R})-3-amino-4-methoxy-piperidine-1-carbonyl]-7-methoxy-1-methyl-benzimidazol-2-yl]-6-cyclopropyl-2-methyl-3,7,16,22-tetrazatetracyclo[14.5.2.0^ {5,10}.0^{19,23}] tricosa-1(22),5,7,9,17,19(23), 20-heptaen-4-one]: 71 nM.
Consider `COc1cc(C(=O)N2C[C@H](N)CC[C@@H]2C)cc2nc(-c3cc4ccc5nc4n3CC(F)(F)CCC[C@@H]3C[C@H]3C(=O)N[C@@H]5C)n(C)c12` [Example 849, (2~{R},5~{R},7~{R})-14-[5-[(2~{S},5~{R})-5-amino-2-methyl-piperidine-1-carbonyl]-7-methoxy-1-methyl-benzimidazol-2-yl]-11,11-difluoro-2-methyl-3,13,19-triazatetracyclo[11.5.2.0^ {5,7}.0^{16,20}]icosa-1(19), 14,16(20),17-tetraen-4-one], for which the IC50 turned out to be 15 nM.
`C[C@H]1NC(=O)c2nccnc2CCCCCn2c(-c3nc4cc(C(=O)N5C[C@H](N)[C@@H]6CC[C@H]5C6)c(F)c(F)c4n3C3CC3)cc3ccc1nc32` [Example 877, (2~{R})-17-[5-[(1~{S},4~{R}, 5~{})-4-amino-2-azabicyclo [3.2.1]octane-2-carbonyl]-1-cyclopropyl-6,7-difluoro-benzimidazol-2-yl]-2-methyl-3,6,9,16,22-pentazatetracyclo [14.5.2.0^{5,10}.0^{19,23}] tricosa-1(22),5(10),6,8,17,19(23), 20-heptaen-4-one]: the half-maximal inhibitory concentration (IC50) is 40 nM.
Turning to `C[C@H]1NC(=O)C(C)(C)CCCCCCn2c(-c3nc4cc(C(=O)N5[C@H]6CC[C@@H]5[C@H](N)C6)c(F)c(F)c4n3C)cc3ccc1nc32` [Example 555, (11~{R})-17-[5-[(1~{R}, 2~{R},4~{S})-2-amino-7-azabicyclo [2.2.1]heptane-7-carbonyl]-6,7-difluoro-1-methyl-benzimidazol-2-yl]-8,8,11-trimethyl-1,10,19-triazatricyclo [10.5.2.0^{15,18}]nonadeca-12(19),13,15(18),16-tetraen-9-one], the IC50 was 56 nM.
The same measure for `COc1cc(C(=O)N2[C@H]3CC[C@@H]2[C@H](N)C3)cc2nc(-c3cc4ccc5cc4n3CCCCCOC(C)(C)C(=O)N[C@@H]5C)n(C)c12` [Example 222, (11~{R})-17-[5-[(1~{R},2~{R},4~{S})-2-amino-7-azabicyclo[2.2.1]heptane-7-carbonyl]-7-methoxy-1-methyl-benzimidazol-2-yl]-8,8,11-trimethyl-7-oxa-1,10-diazatricyclo[10.5.2.0^{15,18}]nonadeca-12(19),13,15(18),16-tetraen-9-one]: 64 nM; for `COc1cc(C(=O)N2CC[C@@H](OC)[C@@H](N)C2)cc2nc(-c3cc4ccc5nc4n3CCCCCCC(C)(C)C(=O)NC5C(F)(F)F)n(C)c12` (stereo partly drawn) [Example 785, 17-[5-[(3~{S},4~{R})-3-amino-4-methoxy-piperidine-1-carbonyl]-7-methoxy-1-methyl-benzimidazol-2-yl]-8,8-dimethyl-11-(trifluoromethyl)-1,10,19-triazatricyclo [10.5.2.0^{15,18}]nonadeca-12,14,16,18-tetraen-9-one]: 954 nM.
Consider `CCc1c(-c2cc3ccc4nc3n2CCCCCCC(C)(C)C(=O)N[C@@H]4C)nn2cc(C(=O)N3CCC[C@@H](N)C3)ccc12` [Example 237, (11~{R})-17-[6-[(3~{R})-3-aminopiperidine-1-carbonyl]-3-ethyl-pyrazolo[1,5-a]pyridin-2-yl]-8,8,11-trimethyl-1,10,19-triazatricyclo[10.5.2.0^{15,18}]nonadeca-12(19),13,15(18),16-tetraen-9-one], for which the IC50 is 62 nM.
Take `C[C@@H]1[C@H](N)CCCN1C(=O)c1ccc2c(nc(-c3cc4ccc5nc4n3CC/C=C/C[C@@H]3C[C@H]3C(=O)N[C@@H]5C)n2C2CC2)c1F` [Example 753, (2~{R},5~{R},7~{R},9~{E})-14-[5-[(2~{R},3~{R})-3-amino-2-methyl-piperidine-1-carbonyl]-1-cyclopropyl-4-fluoro-benzimidazol-2-yl]-2-methyl-3,13,19-triazatetracyclo [11.5.2.0^{5,7}.0^{16,20}] icosa-1(19),9,14,16(20), 17-pentaen-4-one]: the IC50 was determined as 113 nM.
